Assay results reported in patent EP4640238A1, “THERAPEUTIC AGENT FOR PULMONARY DISEASE, HEPATIC DISEASE OR RENAL DISEASE, WHICH CONTAINS PGAM-CHK1 BINDING INHIBITOR” (Kyoto University, priority 2022, dated 2024).

What was measured:
PGAM-Chk1 binding = PGAM-Chk1 binding inhibition HTP screening using a Cell-base NanoBiT system (primary screening); format: cell-based
From the text: Examples of a preferred method for measuring the binding level between PGAM and Chk1 include, in addition to the above, a method that uses PGAM and Chk1 labeled with tags that can bind to each other, and specific examples thereof include the following method that uses a Nanobit system. In Nanobit, a large subunit and a small subunit of a photoprotein prepared based on a luciferase are attached as tags to PGAM and Chk1, respectively. These tags have structures that can bind to each other. […] By measuring the intensity of the luminescence signal at this time, the binding level can be measured with high sensitivity and high quantitativity.
PGAM-Chk1 binding inhibition HTP (high-throughput) screening using a Cell-base NanoBiT system was carried out. Specifically, the screening was carried out by the following method. In NanoBiT, a large subunit and a small subunit of a photoprotein prepared based on a luciferase are attached as tags to PGAM and Chk1, respectively. These tags have structures that can bind to each other. […] By measuring the intensity of the luminescence signal at this time, the binding level can be measured with high sensitivity and high quantitativity. […] Therefore, a substance that inhibits the binding of PGAM and Chk1 was searched from the drug library, with the decrease in the luminescence signal as an indicator. […]

[1] = test system: BLM pulmonary fibrosis model mice; assay: Survival rate in BLM pulmonary fibrosis model mice; format: in vivo, C57BL6 mice; settings: 2.5 mg/kg bleomycin intratracheally; 20 mg/kg nutlin 3b intraperitoneally 4 times a week for 2 weeks from day 8; deaths within 21 days; versus solvent only
Protocol: 2.5 mg/kg of bleomycin was intratracheally administered to 10- to 12-week old C57BL6 mice. Starting 8 days after bleomycin administration, 20 mg/kg of nutlin 3b or the solvent alone was intraperitoneally administered 4 times a week for 2 weeks. The mice were checked for survival every day, and the number of mice that died within 21 days after bleomycin administration was counted. In this test, 6 mice in the nutlin 3b non-administration group (solvent only) and 7 mice in the nutlin 3b administration group were used. […] In the figure, 3B indicates nutlin 3b. The same applies to the following figures.

[2] = test system: fibrosis-related genes (Col1a2, Col5a2, Fibronectin, and Toropelastin); assay: Expression of fibrosis-related mRNA in lung tissue of BLM pulmonary fibrosis model mice (real-time PCR); format: in vivo, ICR mice; settings: lung tissue 21 days after 2.5 mg/kg bleomycin; 14, 20, and 24 mg/kg intraperitoneally 4 times a week for 2 weeks; versus solvent
Protocol: 2.5 mg/kg of bleomycin was intratracheally administered to 10- to 12-week old ICR mice. Starting 8 days after bleomycin administration, 14, 20, and 24 mg/kg of nutlin 3b or the solvent alone were intraperitoneally administered 4 times a week for 2 weeks. 21 days after bleomycin administration, mice in the nutlin 3b administration group or solvent administration group were sacrificed to sample their lung tissue. In the test, 3 mice in the nutlin 3b non-administration group (solvent only) and 3 mice in the nutlin 3b administration group were used. The same applies to the following tests. The collected lung tissue was immersed in a sufficient amount of RNAlater and stored at 4°C overnight. The next day, the lung tissue was removed from the RNAlater, and the total RNA was collected using TRIzole. Then, mRNA was reverse-transcribed using a ReverTra Ace qPCR RT kit to prepare cDNA. Real-time PCR was performed on the prepared cDNA using primers specific to fibrosis-related genes (Col1a2, Col5a2, Fibronectin, and Toropelastin).

[3] = test system: BLM pulmonary fibrosis model mice; assay: Pathological comparison: Masson's trichrome staining of lung tissue, quantification of fibrosis regions; format: in vivo, ICR mice; settings: blue area quantified, 14, 20, and 24 mg/kg intraperitoneally 4 times a week for 2 weeks, day 21 after bleomycin
Protocol: 2.5 mg/kg of bleomycin was intratracheally administered to 10- to 12-week old ICR mice. Starting 8 days after bleomycin administration, 14, 20, and 24 mg/kg of nutlin 3b or the solvent alone were intraperitoneally administered 4 times a week for 2 weeks. 21 days after bleomycin administration, mice in the nutlin 3b administration group or solvent administration group were sacrificed to sample their lung tissue. The lung tissue was fixed by treatment with 4% paraformaldehyde for 48 hours. The fixed lung tissue was embedded in paraffin, and then sliced into 5 µm thin slices, and set on microscope slides. Masson's trichrome staining was performed on the thin slices of the lung tissue to evaluate fibrosis. Specifically, in Masson's trichrome staining, nuclei are stained black-brown with iron hematoxylin staining, cytoplasm is stained red with […], and collagen fibers are stained blue with aniline blue. Accordingly, to evaluate fibrosis, the stained image was separated into the three primary colors using ImageJ (image analysis software), and the area which stained blue was quantified as the fibrosis regions. The obtained signals of each group were expressed as relative values to the control group (PBS + PEG). The results of Masson's trichrome staining are shown in Fig. 17-1, and the quantification results of the fibrosis regions are shown in Fig. 17-2.

[4] = test system: FoxM1 and its downstream target genes (Plk1, Ccnb2, Aspm, and Cep55); assay: Expression of FoxM1 and its downstream target genes in lung tissue of BLM pulmonary fibrosis model mice (real-time PCR); format: in vivo, ICR mice; settings: lung tissue 21 days after 2.5 mg/kg bleomycin; 20 mg/kg intraperitoneally 4 times a week for 2 weeks; versus solvent
Protocol: The influence of the nutlin 3b administration to FoxM1 target factors in bleomycin-induced pulmonary fibrosis was examined. Specifically, 2.5 mg/kg of bleomycin was intratracheally administered to 10- to 12-week old ICR mice. Starting 8 days after bleomycin administration, 20 mg/kg of nutlin 3b or the solvent alone was intraperitoneally administered 4 times a week for 2 weeks. 21 days after bleomycin administration, mice in the nutlin 3b administration group and the solvent administration group were sacrificed to sample their lung tissue. In the test, 3 mice in the nutlin 3b non-administration group (solvent only) and 3 mice in the nutlin 3b administration group were used. The collected lung tissue was immersed in a sufficient amount of RNAlater and stored at 4°C overnight. The next day, the lung tissue was removed from the RNAlater, and the total RNA was collected using TRIzole. Then, mRNA was reverse-transcribed using a ReverTra Ace qPCR RT kit to prepare cDNA. Real-time PCR was performed on the prepared cDNA using primers specific to FoxM1 and its downstream target genes (Plk1, Ccnb2, Aspm, and Cep55).

aged mice [5] = assay: Effect on the lungs of aged mice (HE staining and p21 antibody staining); format: in vivo, C57BL/6J; settings: 20-month-old aged mice, once a week for 3 months; versus Vehicle
Protocol: (§1) Nutlin 3b was administered to C57BL/6J, 20-month-old aged mice once a week for 3 months. After 3 months, the mice were sacrificed, and HE staining and mRNA expression analysis of the lung tissue were performed. As a comparison subject, the lung tissue of young mice (C57BL/6J, 10-week old) and aged mice with no administration of nutlin 3b (Vehicle) were used.

aged mice [6] = assay: Effect on the kidneys of aged mice (HE staining, hyalinization, marker expression); format: in vivo, C57BL/6J; settings: 20-month-old aged mice, once a week for 3 months, versus Vehicle
Protocol: as §1, with “renal” for “lung”
Also, the increase in senescence markers and SASP markers induced in aged renal tissue was suppressed by nutlin 3b administration (Fig. 20-3).

Row | Molecule | luminescence signal (binding level between PGAM and Chk1) (PGAM-Chk1 binding) | survival rate [1] | expression of the fibrosis-related genes [2] | fibrosis areas induced by bleomycin in the lungs [3] | expression of FoxM1 target genes [4] | p21-positive cells in aged lung tissue (aged mice [5]) | increase in senescence markers and SASP markers induced in aged renal tissue (aged mice [6]) | glomerular hyalinization (four-level score) (aged mice [6]; HE staining of renal tissue) | interstitial hyalinization positive rate (aged mice [6]; HE staining of renal tissue)
1 | nutlin | luminescence signal decreases |  |  |  |  |  |  |  | 
2 | COc1ccc(C2=N[C@H](c3ccc(Cl)cc3)[C@H](c3ccc(Cl)cc3)N2C(=O)N2CCNC(=O)C2)c(OC(C)C)c1 [nutlin 3b, Nutlin-3b] |  | improved the survival rate | decreased | smaller than those of the control group | suppression of the expression of FoxM1 target genes was observed | significantly suppressed | suppressed | significant improvement in hyalinization | significant improvement in hyalinization
